Source: US7163941B2, “Pyrido[2,3-d]pyrimidin-7-carboxylic acid derivatives, their manufacture and use as pharmaceutical agents” (Hoffmann-La Roche Inc., priority 2003, dated 2007)

What was measured:
Lck (p56^lck, active) = target: T1, Lck (p56^lck, active) (Homo sapiens, UniProt P06239); experiment: SRC-Inhibitor-Assay (time-resolved fluorescence), Lck enzyme; assay type: biochemical; conditions: ATP 5 μM, peptide 10 μM, enzyme 2.5 U/ml, pre-incubation 15 min at 15° C.
T1 construct: purchased Upstate (UBI)

[1] = target: T2, Src (p60^c-src, partially purified) (Homo sapiens, UniProt P12931); experiment: SRC-Inhibitor-Assay (time-resolved fluorescence), Src enzyme; assay type: biochemical; conditions: ATP 5 μM, peptide 10 μM, enzyme 2.5 U/ml, pre-incubation 15 min at 15° C.
T2 construct: purchased Upstate (UBI)
T2 sequence (P12931 whole entry, species assumed): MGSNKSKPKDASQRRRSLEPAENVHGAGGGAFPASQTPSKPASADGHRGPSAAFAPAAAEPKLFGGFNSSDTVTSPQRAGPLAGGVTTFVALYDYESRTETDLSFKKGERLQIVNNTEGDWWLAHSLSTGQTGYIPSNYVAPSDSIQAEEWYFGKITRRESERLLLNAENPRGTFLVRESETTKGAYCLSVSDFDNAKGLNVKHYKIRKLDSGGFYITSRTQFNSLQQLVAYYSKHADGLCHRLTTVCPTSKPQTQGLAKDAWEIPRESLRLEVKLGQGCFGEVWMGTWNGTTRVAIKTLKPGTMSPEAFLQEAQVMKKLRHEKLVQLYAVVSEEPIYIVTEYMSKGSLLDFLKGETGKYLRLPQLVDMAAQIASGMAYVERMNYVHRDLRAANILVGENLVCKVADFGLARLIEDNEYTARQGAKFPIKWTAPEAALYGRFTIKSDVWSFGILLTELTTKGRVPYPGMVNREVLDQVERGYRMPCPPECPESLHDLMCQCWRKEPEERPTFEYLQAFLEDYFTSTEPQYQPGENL

T1 sequence (P06239 whole entry, species assumed): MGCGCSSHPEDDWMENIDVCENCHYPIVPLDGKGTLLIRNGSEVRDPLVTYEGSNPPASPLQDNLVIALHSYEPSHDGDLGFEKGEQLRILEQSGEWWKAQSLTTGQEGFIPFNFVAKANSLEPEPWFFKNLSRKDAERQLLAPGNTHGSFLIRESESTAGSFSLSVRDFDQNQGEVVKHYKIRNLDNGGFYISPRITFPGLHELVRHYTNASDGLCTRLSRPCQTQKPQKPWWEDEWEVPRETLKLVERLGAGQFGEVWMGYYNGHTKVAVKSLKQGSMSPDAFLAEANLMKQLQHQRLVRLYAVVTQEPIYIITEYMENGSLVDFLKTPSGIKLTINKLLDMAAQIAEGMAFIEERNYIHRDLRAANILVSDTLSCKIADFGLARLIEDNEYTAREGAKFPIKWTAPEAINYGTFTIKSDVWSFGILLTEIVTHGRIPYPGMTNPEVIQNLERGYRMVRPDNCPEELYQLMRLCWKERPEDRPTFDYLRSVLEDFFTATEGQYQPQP

Compound	IC50 (Lck (p56^lck, active))	IC50 [1]
CS(=O)(=O)NCCNC(=O)c1nc2nc(Nc3ccc(N4CCOCC4)cc3)ncc2cc1-c1ccccc1Br [Example 7-15, 6-(2-bromo-phenyl)-2-(4-morpholin-4-yl-phenylamino)-pyrido[2,3-d]pyrimidine-7-carboxylic acid (2-methanesulfonylamino-ethyl)-amide]	11.4 nM	0.4 nM
CS(=O)(=O)NCCNC(=O)c1nc2nc(Nc3cccc(NS(C)(=O)=O)c3)ncc2cc1-c1ccccc1Br [Example 7-17, 6-(2-bromo-phenyl)-2-(3-methanesulfonylamino-phenylamino)-pyrido[2,3-d]pyrimidine-7-carboxylic acid (2-methanesulfonylamino-ethyl)-amide]	11.8 nM	3.5 nM
CS(=O)(=O)NCCNC(=O)c1nc2nc(Nc3ccc(OCCO)cc3)ncc2cc1-c1ccccc1Br [Example 7-18, 6-(2-bromo-phenyl)-2-[4-(2-hydroxy-ethoxy)-phenylamino]-pyrido[2,3-d]pyrimidine-7-carboxylic acid (2-methanesulfonylamino-ethyl)-amide]	18.8 nM	8.8 nM
CC(=O)Nc1cccc(Nc2ncc3cc(-c4ccccc4Br)c(C(=O)NCCNS(C)(=O)=O)nc3n2)c1 [Example 7-21, 2-(3-acetylamino-phenylamino)-6-(2-bromo-phenyl)-pyrido[2,3-d]pyrimidine-7-carboxylic acid (2-methanesulfonylamino-ethyl)-amide]	12 nM	1.8 nM
CS(=O)(=O)NCCNC(=O)c1nc2nc(Nc3ccc4c(c3)S(=O)(=O)CCO4)ncc2cc1-c1ccccc1Br [Example 7-22, 6-(2-bromo-phenyl)-2-(4,4-dioxo-3,4-dihydro-2H-4lambda*6*-benzo[1,4]oxathiin-6-ylamino)-pyrido[2,3-d]pyrimidine-7-carboxylic acid (2-methanesulfonylamino-ethyl)-amide]	37 nM	5 nM

Further compounds by falling IC50 (Lck (p56^lck, active)), results first:

IC50 (Lck (p56^lck, active))	IC50 [1]	Compound
11.1 nM	6.1 nM	COc1cccc(Nc2ncc3cc(-c4ccccc4Br)c(C(=O)NCCNS(C)(=O)=O)nc3n2)c1 [Example 7-20, 6-(2-bromo-phenyl)-2-(3-methoxy-phenylamino)-pyrido[2,3-d]pyrimidine-7-carboxylic acid (2-methanesulfonylamino-ethyl)-amide]
9 nM	4 nM	CS(=O)(=O)NCCNC(=O)c1nc2nc(Nc3ccc4c(c3)OC(CO)CO4)ncc2cc1-c1ccccc1Br (stereo not drawn) [Example 7-24, 6-(2-bromo-phenyl)-2-(3-hydroxymethyl-2,3-dihydro-benzo[1,4]dioxin-6-ylamino)-pyrido[2,3-d]pyrimidine-7-carboxylic acid (2-methanesulfonylamino-ethyl)-amide]
6.1 nM	1 nM	CS(=O)(=O)NCCNC(=O)c1nc2nc(Nc3cccc(SCCO)c3)ncc2cc1-c1ccccc1Br [Example 7-23, 6-(2-bromo-phenyl)-2-[3-(2-hydroxy-ethylsulfanyl)-phenylamino]-pyrido[2,3-d]pyrimidine-7-carboxylic acid (2-methanesulfonylamino-ethyl)-amide]
2.1 nM	1 nM	CN1CCN(c2ccc(Nc3ncc4cc(-c5ccccc5Br)c(C(=O)NCCNS(C)(=O)=O)nc4n3)cc2)CC1 [Example 7-19, 6-(2-bromo-phenyl)-2-[4-(4-methyl-piperazin-1-yl)-phenylamino]-pyrido[2,3-d]pyrimidine-7-carboxylic acid (2-methanesulfonylamino-ethyl)-amide]
